# Laboratory results taken from patent US9532553B2, “Process for treating with a chemical compound a body of water used in aquaculture” (SOLVAY SA, priority 2009, dated 2017).
# Columns and labels:
# [1] = system: salmon lice (Lepeophtheirus salmonis); conditions: Example 3: 1500 ppm hydrogen peroxide in 500 m^3 sea water, added in about 4.5 min, treatment continued 22.5 min, then flushed; infested Atlantic salmons
# Atlantic salmons = conditions: Example 3: 1500 ppm hydrogen peroxide in 500 m^3 sea water, added in about 4.5 min via eductor nozzle agitation system, treatment continued 22.5 min
# Method: The treatment was continued for 22.5 minutes then the treated water was flushed away and replaced by fresh seawater.
# In Example 3, the body of water comprised additionally Atlantic salmons as living organisms, said salmons being infested with external parasites, i.e. salmon lice (Lepeophtheirus salmonis). The purpose of the test was to remove these parasites from the fish.
structure (smiles),measurement,setting,value
OO [hydrogen peroxide],removal of salmon lice from the treated fish,[1],effective in removing the salmon lice
same,injury to the fish,Atlantic salmons,without injuring the fish
